Reference: PubChem BioAssay AID1159559 (GlaxoSmithKline (GSK), 2015)
Calls of active or inactive are those of the source.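 Rule for the calls: active = compounds whose IC50 against parasite growth in infected mouse cells is below 50000 nM; inactive = the rest.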

Tested on: T. cruzi Tulahuen in NIH-3T3, beta-gal fluorescence, 4 d
Assay: anti-Chagas amastigote proliferation inhibitors – cell-based (AID 1159559)

Compound	IC50
O=C(CN(c1cccc(C(F)(F)F)c1)S(=O)(=O)c1ccc(Cl)cc1)NCc1ccc(F)c(F)c1	790 nM
CC(C)Oc1cccc(N2CCC(C(=O)N3CCCN(C(C)C)CC3)CC2)c1	1300 nM
CCC(c1ccc(F)cc1)n1cncc1-c1cnn(C)c1 (centres undefined)	200 nM
Cc1c(CNC(=O)c2ccc(Cn3cc(Cl)c([N+](=O)[O-])n3)cc2)cnn1C	1000 nM
CC(C)N(C(=O)CN1C(=O)C(N)C(=O)N(c2ccccc2)c2ccccc21)c1ccccc1 (centres undefined)	320 nM
Cn1nccc1NC(=O)Cn1ccc(-c2ccncc2)n1	> 50000 nM (inactive)
CCN(CC)c1nc(Nc2ccncc2)nc2ccccc12	130 nM
CC(C)(C)Nc1nc(Nc2ccc3c(c2)CS(=O)(=O)C3)nc2[nH]ccc12	1000 nM
Cc1ccc2c(c1)-c1onc(C(=O)N3CCCCC3c3cccnc3)c1CO2 (centres undefined)	100 nM
CCN(C)Cc1ccc(N2CCC(NS(=O)(=O)c3ccc4c(c3)CCO4)CC2)nc1	630 nM
O=C(NCc1nnc2n1CCCCC2)c1csc(-c2ccccc2)n1	2500 nM
CC(C)C[C@H](NC(=O)c1ccc(-c2ccccc2)o1)C(=O)NC1(C#N)CC1	32000 nM
Cc1ccc(Nc2nc(-c3ccccn3)cc(N3CCCC(O)C3)n2)cc1 (centres undefined)	500 nM
CN(Cc1ccc(C(N)=O)cc1)C(c1ccc(F)cc1)c1cccnc1 (centres undefined)	160 nM
Cc1cc(C)cc(NS(=O)(=O)c2cc(-c3cc(C)[nH]n3)ccc2C)c1	1000 nM
O=C(COc1nn(-c2ccccc2)c2ncccc12)NCc1ccccc1	13000 nM
O=C1CN(C(=O)c2cccc(Nc3ncc(-c4ccc5c(c4)OCO5)cn3)c2)CCN1	1600 nM

Compound	IC50
Cc1nn(C2CCS(=O)(=O)C2)c(C)c1CN(C)C(=O)C=Cc1sc2ccccc2c1Cl (centres undefined)	630 nM
COc1ccc(CNc2nsc3ccccc23)cc1OC	6300 nM
CNC(=O)Oc1ccc(C(=O)NCc2ccccc2)cc1OC(=O)NC	32000 nM
CCCCCNC(=O)c1c[nH]c2ccc(S(=O)(=O)N(C)c3ccc(OCC)cc3)cc2c1=O	32000 nM
Clc1cc(Br)ccc1OCCCCn1ccnc1	630 nM
O=C(c1cccc(Cl)c1Cl)N1CCn2c1nc(-c1ccncc1)cc2=O	160 nM
O=c1cc(CSc2ccc(Cl)cc2)nc(-c2ccccn2)[nH]1	1000 nM
CC(=O)Nc1cccc(Nc2ncnc3nc[nH]c23)c1	> 50000 nM (inactive)
C=CCOCC1Cn2nc([N+](=O)[O-])nc2O1 (centres undefined)	500 nM
Cc1[nH]nc(Nc2ccnc3[nH]ccc23)c1C	4000 nM
CC(C)c1sc(Cl)nc1C(=O)NCCc1nc(C(=O)Nc2ccc3c(c2)OCO3)cs1	4000 nM
COc1ccc(C2C3CCCCC3(O)CCN2CC(=O)Nc2ccc(Cl)cc2Cl)cc1 (centres undefined)	2500 nM
Nc1ncnc2c1ncn2[C@@H]1O[C@H](CO)C[C@H]1O	1000 nM
O=C(Nc1ccc(-c2nc3ccccc3c(=O)[nH]2)cc1)c1cccs1	3200 nM
NC(=O)c1cc(NC(=O)c2ccccc2COc2ccccc2)ccc1Cl	40000 nM
CCN(CC)c1nc(N(C)C)nc2c1CN(Cc1ccccc1)CC2	6300 nM
COc1cc(C(C)C)c(S(C)(=O)=O)cc1C(=O)N1CCN(c2ccccc2Cl)CC1	1600 nM
